Reference: patent US20120258980A1, “Antibacterial Agent for Drug-Resistant Bacteria, Method for Screening for Same, and Use of Same” (priority 2009, published 2012)
≈ marks a conversion by molar mass, not a printed value. Where two headings read alike, the source gives them in different places.

Assays:
[1] = tested on: VISA clinical isolates of MRSA (VI-MRSA) and of MSSA (VI-MSSA); test: microbe, parasite or virus in culture; assay type: cell-based, Staphylococcus aureus
Procedure: Each of the bacterial strains listed in Table 1-1 was shake-cultured at 37° C. overnight in 4 mL of a medium (Tryptical Soy Broth: TSB, product of Becton Dickinson and Company). FDA209P was used as a control.
After completion of culturing, the resultant culture was suspended in a cation-adjusted Mueller Hinton Broth (CAMHB, product of Becton Dickinson and Company). Then, the obtained bacterial culture was adjusted in absorbance with the CAMHB so that the absorbance at 578 nm of the bacterial culture was adjusted to 0.3 measured by an absorption spectrometer. In addition, the resultant bacterial culture was 500-fold diluted with the CAMHB.
Each of the 500-fold diluted, pre-cultured bacterial cultures was added at 50 μL/well to the CAMHB containing the quinolones and the nybomycins at various concentrations (50 μL/well), followed by statically culturing at 37° C. overnight.
After completion of culturing, the growth of the bacteria was visually determined based on turbidity to measure MIC in each bacterial strain.
Here, the glycopeptides used were VCM and TEIC. The β-lactam used was OXA.

[2] = tested on: VRSA clinical isolates; details: based on NARSA, cited from earlier work

SMILES: Cc1onc(-c2ccccc2)c1C(=O)N[C@@H]1C(=O)N2[C@@H]1SC(C)(C)[C@@H]2C(=O)O [OXA, oxacillin]
- MIC ([1]; Staphylococcus aureus, 99/3700-W, VI-MRSA, The United Kingdom): 512 µg/mL (≈ 1280 µM)
- MIC ([1]; Staphylococcus aureus, 99/3759-V, VI-MRSA, The United Kingdom): 512 µg/mL (≈ 1280 µM)
- MIC ([1]; Staphylococcus aureus, 28160, VI-MRSA, South African Republic): 32 µg/mL (≈ 79.7 µM)
- MIC ([1]; Staphylococcus aureus, 98141, VI-MRSA, France): > 128 µg/mL
- MIC ([1]; Staphylococcus aureus, A7 (JCSC4842), VI-MRSA, Taiwan): 128 µg/mL (≈ 319 µM)
- MIC ([1]; Staphylococcus aureus, AMC11094, VI-MRSA, Korea): 512 µg/mL (≈ 1280 µM)
- MIC ([1]; Staphylococcus aureus, B7 (JCSC4852), VI-MRSA, Taiwan): 128 µg/mL (≈ 319 µM)
- MIC ([1]; Staphylococcus aureus, BR1, VI-MRSA, Brazil): 256 µg/mL (≈ 638 µM)
- MIC ([1]; Staphylococcus aureus, BR2, VI-MRSA, Brazil): 64 µg/mL (≈ 159 µM)
- MIC ([1]; Staphylococcus aureus, BR3, VI-MRSA, Brazil): 64 µg/mL (≈ 159 µM)
- MIC ([1]; Staphylococcus aureus, BR4, VI-MRSA, Brazil): 512 µg/mL (≈ 1280 µM)
- MIC ([1]; Staphylococcus aureus, BR5, VI-MRSA, Brazil): 512 µg/mL (≈ 1280 µM)
- MIC ([1]; Staphylococcus aureus, HIP06297, VI-MRSA, America): 512 µg/mL (≈ 1280 µM)
- MIC ([1]; Staphylococcus aureus, HIP06854, VI-MRSA, America): 128 µg/mL (≈ 319 µM)
- MIC ([1]; Staphylococcus aureus, HIP07920, VI-MRSA, America): 128 µg/mL (≈ 319 µM)
- MIC ([1]; Staphylococcus aureus, HIP07930, VI-MRSA, America): 32 µg/mL (≈ 79.7 µM)
- MIC ([1]; Staphylococcus aureus, HIP08926, VI-MRSA, America): 512 µg/mL (≈ 1280 µM)
- MIC ([1]; Staphylococcus aureus, HIP09143, VI-MRSA, America): 512 µg/mL (≈ 1280 µM)
- MIC ([1]; Staphylococcus aureus, HIP09313, VI-MRSA, America): 512 µg/mL (≈ 1280 µM)
- MIC ([1]; Staphylococcus aureus, HIP09433, VI-MRSA, America): 256 µg/mL (≈ 638 µM)
- MIC ([1]; Staphylococcus aureus, HIP09662, VI-MRSA, America): 512 µg/mL (≈ 1280 µM)
- MIC ([1]; Staphylococcus aureus, HIP09735, VI-MRSA, America): 512 µg/mL (≈ 1280 µM)
- MIC ([1]; Staphylococcus aureus, HIP09737, VI-MSSA, America): 1 µg/mL (≈ 2.49 µM)
- MIC ([1]; Staphylococcus aureus, HIP09740, VI-MRSA, America): 512 µg/mL (≈ 1280 µM)
- MIC ([1]; Staphylococcus aureus, HIP10267, VI-MRSA, America): 4 µg/mL (≈ 9.96 µM)
- MIC ([1]; Staphylococcus aureus, HIP10540, VI-MRSA, America): 64 µg/mL (≈ 159 µM)
- MIC ([1]; Staphylococcus aureus, HIP12864, VI-MRSA, America): 1020 µg/mL (≈ 2550 µM)
- MIC ([1]; Staphylococcus aureus, HIP13036, VI-MRSA, America): 32 µg/mL (≈ 79.7 µM)
- MIC ([1]; Staphylococcus aureus, HIP13057, VI-MRSA, America): 4 µg/mL (≈ 9.96 µM)
- MIC ([1]; Staphylococcus aureus, IL (HIP7737), VI-MRSA, America): 64 µg/mL (≈ 159 µM)
- MIC ([1]; Staphylococcus aureus, JCSC7193, VI-MRSA, Thailand): > 128 µg/mL
- MIC ([1]; Staphylococcus aureus, JCSC7195, VI-MRSA, Thailand): > 128 µg/mL
- MIC ([1]; Staphylococcus aureus, JCSC7203, VI-MRSA, Thailand): 128 µg/mL (≈ 319 µM)
- MIC ([1]; Staphylococcus aureus, LIM2, VI-MRSA, France): 32 µg/mL (≈ 79.7 µM)
- MIC ([1]; Staphylococcus aureus, LY-1999-01, VI-MSSA, Oman): 1 µg/mL (≈ 2.49 µM)
- MIC ([1]; Staphylococcus aureus, LY-1999-03, VI-MRSA, Oman): 1020 µg/mL (≈ 2550 µM)
- MIC ([1]; Staphylococcus aureus, MI (HIP5827), VI-MRSA, America): 512 µg/mL (≈ 1280 µM)
- MIC ([1]; Staphylococcus aureus, MRSA / MSSA / NRS 76 / VISA, NRS76, VI-MSSA, America): 1 µg/mL (≈ 2.49 µM)
- MIC ([1]; Staphylococcus aureus, MRSA / MSSA / NRS 79 / VISA, NRS79, VI-MRSA, America): 256 µg/mL (≈ 638 µM)
- MIC ([1]; Staphylococcus aureus, MRSA / MSSA / NRS 118 / VISA, NRS118, VI-MRSA, America): 1020 µg/mL (≈ 2550 µM)
- MIC ([1]; Staphylococcus aureus, MRSA / MSSA / NRS 126 / VISA, NRS126, VI-MRSA, America): 256 µg/mL (≈ 638 µM)
- MIC ([1]; Staphylococcus aureus, Mu3, VI-MRSA, Japan): 512 µg/mL (≈ 1280 µM)
- MIC ([1]; Staphylococcus aureus, Mu50, VI-MRSA, Japan): 512 µg/mL (≈ 1280 µM)
- MIC ([1]; Staphylococcus aureus, NJ (HIP5836), VI-MRSA, America): 64 µg/mL (≈ 159 µM)
- MIC ([1]; Staphylococcus aureus, P1V44, VI-MSSA, Belgium): 2 µg/mL (≈ 4.98 µM)
- MIC ([1]; Staphylococcus aureus, PC, VI-MRSA, America): 4 µg/mL (≈ 9.96 µM)
- MIC ([1]; Staphylococcus aureus, SA MER-S6, VI-MSSA, France): 1 µg/mL (≈ 2.49 µM)
- MIC ([1]; Staphylococcus aureus, SA MER-S12, VI-MSSA, France): 1 µg/mL (≈ 2.49 µM)
- MIC ([1]; Staphylococcus aureus, SA MER-S20, VI-MSSA, France): 1 µg/mL (≈ 2.49 µM)
- MIC ([2]; VRS1, VRSA, Michigan): >16 µg/mL
- MIC ([2]; VRS2, VRSA, Pennsylvania): >16 µg/mL
- MIC ([2]; VRS3, VRSA, New York): >16 µg/mL
- MIC ([2]; VRS4, VRSA, New York): >16 µg/mL
- MIC ([2]; VRS5, VRSA, Michigan): >16 µg/mL
- MIC ([2]; VRS6, VRSA, Michigan): >16 µg/mL
- MIC ([2]; VRS7, VRSA, Michigan): 8 µg/mL (≈ 19.9 µM)
